Results: patent US20190053492A1, “SUBSTITUTED PYRIDINE COMPOUNDS AS PESTICIDES” (Bayer CropScience Aktiengesellschaft, priority 2016, published 2019)
Like-named read-outs stand apart in the source and are kept apart here.

Assays:
Spodoptera frugiperda = Spodoptera frugiperda spray test; assay type: in vivo; conditions: after 7 days, maize leaf discs; for pest or weed control at 500 g/ha / pest or weed control at 100 g/ha: Spodoptera frugiperda, foliar, 168 h, read-out: efficacy (caterpillars killed)
Protocol: Spodoptera frugiperda—Spray Test
Solvent: 78.0 parts by weight of acetone • • 1.5 parts by weight of dimethylformamide
Emulsifier: alkylaryl polyglycol ether
To produce a suitable active ingredient formulation, 1 part by weight of active ingredient is dissolved with the specified parts by weight of solvent and made up with water containing an emulsifier concentration of 1000 ppm until the desired concentration is attained. To produce further test concentrations, the formulation is diluted with emulsifier-containing water.
Leaf discs of maize (Zea mays) are sprayed with an active ingredient formulation of the desired concentration and, after drying, populated with caterpillars of the armyworm (Spodoptera frugiperda).
After 7 days, the efficacy in % is determined. 100% means that all the caterpillars have been killed; 0% means that no caterpillar has been killed.

[1] = log P by HPLC on reversed-phase column (C 18), EEC Directive 79/831 Annex V.A8; assay type: physicochemical; conditions: 55° C.; for LOGP_HCOOH: log P (HCOOH); for chromatographic logP: reversed-phase HPLC column (C 18)
Protocol: Temperature: 55° C. […] Called log P (HCOOH) in the table. […] Called log P (neutral) in the table.

[2] = acidic range pH 2.7, 0.1% aqueous formic acid and acetonitrile, reversed-phase column (C 18)
[3] = log P, neutral range, HPLC on reversed-phase column (C 18)
[4] = acidic range at pH 2.7, 0.1% aqueous formic acid and acetonitrile, HPLC on reversed-phase column (C 18)
[5] = pH 2.7, LC-MS acidic range, pH 2.7, 0.1% formic acid/acetonitrile, read-out: log P (acidic) / log P (HCOOH)
[6] = pH 7.8, LC-MS neutral range, pH 7.8, ammonium hydrogencarbonate/acetonitrile, read-out: log P (neutral)

Structure (SMILES)	efficacy (caterpillars killed) (Spodoptera frugiperda; application rate 500 g/ha) [%]	LOGP_NEUTRAL [1, 3]	efficacy (caterpillars killed) (Spodoptera frugiperda; application rate 100 g/ha) [%]	LOGP_HCOOH [1, 4]	other results
O=C(NCC1CCC1)c1cc(-c2ccc(C(F)(F)F)cc2)cc(NC(=O)C2CC2)n1 [Example I-049]	83	4.10			LOGP_HCOOH [1, 2]: 4.21
O=C(NCc1ccc(C(F)(F)F)cc1F)c1cc(-c2ccc(C(F)(F)F)cc2)cc(NC(=O)C2CC2)n1 [Example I-054]	100	4.59			LOGP_HCOOH [1, 2]: 4.68
O=C(NCCCc1ccc(C(F)(F)F)cc1)c1cc(-c2ccc(C(F)(F)F)cc2)cc(NC(=O)C2CC2)n1 [Example I-058]	100	4.79			LOGP_HCOOH [1, 2]: 4.94
O=C(NCc1cc(F)c(Cl)cc1Cl)c1cc(-c2ccc(C(F)(F)F)cc2)cc(NC(=O)C2CC2)n1 [Example I-059]	100	4.93			LOGP_HCOOH [1, 2]: 5.09
O=C(NCc1ccc(Cl)c(F)c1)c1cc(-c2ccc(OC(F)(F)F)cc2)cc(NC(=O)C2CC2)n1 [Example I-062]	100	4.53	83		LOGP_HCOOH [1, 2]: 4.67
O=C(NCc1cc(F)c(Cl)cc1Cl)c1cc(-c2ccc(OC(F)(F)F)cc2)cc(NC(=O)C2CC2)n1 [Example I-063]	100	5.07			LOGP_HCOOH [1, 2]: 5.20
COc1ccc(CNC(=O)c2cc(-c3ccc(OC(F)(F)F)cc3)cc(NC(=O)C3CC3)n2)cc1 [Example I-083]	100	4.05	83		LOGP_HCOOH [1, 2]: 4.22
Cn1ncc2cccc(CNC(=O)c3cc(-c4ccc(OC(F)(F)F)cc4)cc(NC(=O)C4CC4)n3)c21 [Example I-092]	100	3.67			LOGP_HCOOH [1, 2]: 3.81
N#Cc1ccc(CNC(=O)c2cc(-c3ccc(OC(F)(F)F)c(F)c3)cc(NC(=O)C3CC3)n2)cc1 [Example I-121]	100	3.83	83	3.94	
N#Cc1ccc(CNC(=O)c2cc(-c3ccc(OC(F)(F)F)cc3Cl)cc(NC(=O)C3CC3)n2)cc1 [Example I-122]	100	3.99	100	4.18	
N#CC1(NC(=O)c2cc(-c3ccc(OC(F)(F)F)cc3)cc(NC(=O)C3CC3)n2)CCOCC1 [Example I-134]	100		83	3.58	
COC(=O)C(C)NC(=O)c1cc(-c2ccc(OC(F)(F)F)cc2)cc(NC(=O)C2CC2)n1 (stereo not shown) [Example I-136]	100			3.68	
CCC(C#N)(CC)NC(=O)c1cc(-c2ccc(OC(F)(F)F)cc2)cc(NC(=O)C2CC2)n1 [Example I-139]	100			4.28	
N#Cc1ccc(CNC(=O)c2cc(-c3ccc(C(F)(F)F)nc3F)cc(NC(=O)C3CC3)n2)cc1 [Example I-143]			100	3.24	
CCc1cc(C(F)(F)C(F)(F)F)cc(C)c1-c1cc(NC(=O)C2CC2)nc(C(=O)NCc2ccc(C#N)cc2)c1 [Example I-148, N-(4-Cyanobenzyl)-6-[(cyclopropylcarbonyl)amino]-4-[2-ethyl-6-methyl-4-(pentafluoroethyl)phenyl]pyridine-2-carboxamide]		4.72		4.85	pest or weed control at 500 g/ha (Spodoptera frugiperda; application rate 500 g/ha): 100%; chromatographic logP [1, 5]: 4.85; chromatographic logP [1, 6]: 4.72
O=C(NCC1CCC(C(F)(F)F)CC1)c1cc(-c2ccc(OC(F)(F)F)cc2)cc(NC(=O)C2CC2)n1 (stereo not shown) [Example I-156]	100	4.85	100	4.97	
CC1(NC(=O)c2cc(-c3ccc(OC(F)(F)F)cc3)cc(NC(=O)C3CC3)n2)CSC1 [Example I-163]	100	4.24		4.32	
N#Cc1ccc2c(c1)CCC2NC(=O)c1cc(-c2ccc(OC(F)(F)F)cc2)cc(NC(=O)C2CC2)n1 (stereo not shown) [Example I-164]	100	4.24	100	4.42	

Structure (SMILES)	efficacy (caterpillars killed) (Spodoptera frugiperda; application rate 500 g/ha) [%]	LOGP_NEUTRAL [1, 3]	efficacy (caterpillars killed) (Spodoptera frugiperda; application rate 100 g/ha) [%]	LOGP_HCOOH [1, 4]	other results
N#Cc1ccc2[nH]nc(NC(=O)c3cc(-c4ccc(OC(F)(F)F)cc4)cc(NC(=O)C4CC4)n3)c2c1 [Example I-166]	83			3.68	
O=C(NC1CCCC1)c1cc(-c2ccc(OC(F)(F)F)cc2)cc(NC(=O)C2CC2)n1 [Example I-169]	100	4.22	100	4.35	
O=C(NCC1CCCC1)c1cc(-c2ccc(OC(F)(F)F)cc2)cc(NC(=O)C2CC2)n1 [Example I-170]	100	4.55	83	4.68	
N#Cc1ccc(CNC(=S)c2cc(-c3ccc(OC(F)(F)F)cc3)cc(NC(=S)C3CC3)n2)cc1 [Example I-181, N-(4-Cyanobenzyl)-6-[(cyclopropylcarbonothioyl)amino]-4-[4-(trifluoromethoxy)phenyl]pyridine-2-carbothioamide]		5.43		5.54	pest or weed control at 100 g/ha (Spodoptera frugiperda; application rate 100 g/ha): 100%; pest or weed control at 500 g/ha (Spodoptera frugiperda; application rate 500 g/ha): 100%; chromatographic logP [1, 5]: 5.54; chromatographic logP [1, 6]: 5.43
O=C(NC1CCS(=O)(=O)C1)c1cc(-c2ccc(OC(F)(F)F)cc2)cc(NC(=O)C2CC2)n1 (stereo not shown) [Example I-187]	83	3.00		3.09	
N#Cc1ccc(CNC(=O)c2cc(-c3ccc(C4(C(F)(F)F)CC4)cc3)cc(NC(=O)C3CC3)n2)cc1 [Example I-193]	100	3.95		4.12	
N#CC1CCC(CNC(=O)c2cc(-c3ccc(OC(F)(F)F)cc3)cc(NC(=O)C3CC3)n2)CC1 (stereo not shown) [Example I-198]	100	3.75	100	3.85	
N#CCCCCCNC(=O)c1cc(-c2ccc(OC(F)(F)F)cc2)cc(NC(=O)C2CC2)n1 [Example I-200]	100	3.51	100	3.59	
N#Cc1ccc(CNC(=O)c2cc(-c3ccc(OC(F)(F)F)cc3)cc(NC(=O)C3CCCC3)n2)cc1 [Example I-207]	100	4.51			
N#Cc1ccc(CNC(=O)c2cc(-c3ccc(OC(F)(F)F)cc3)cc(NC(=O)Cc3ccc([N+](=O)[O-])cc3)n2)cc1 [Example I-211]	100	4.01	83	4.16	
N#Cc1ccc(CNC(=O)c2cc(-c3ccc(OC(F)(F)F)cc3)cc(NC(=O)c3cnco3)n2)cc1 [Example I-212]	100	3.34		3.44	
CC(=O)N(C)c1cc(-c2ccc(OC(F)(F)F)cc2)cc(C(=O)NCc2ccc(C#N)cc2)n1 [Example I-220]	100	3.35		3.39	
CCN(C(=O)C(C)C)c1cc(-c2ccc(OC(F)(F)F)cc2)cc(C(=O)NCc2ccc(C#N)cc2)n1 [Example I-221]		4.20	80	4.20	
COC(C)C(=O)Nc1cc(-c2ccc(OC(F)(F)F)cc2)cc(C(=O)NCc2ccc(C#N)cc2)n1 (stereo not shown) [Example I-223]	100	3.91		4.01	
O=C(NC1(c2ccc([N+](=O)[O-])cc2)CC1)c1cc(-c2ccc(OC(F)(F)F)cc2)cc(NC(=O)C2CC2)n1 [Example I-229]	100			4.23	
COC(=O)N(Cc1ccc(C#N)cc1)C(=O)c1cc(-c2ccc(OC(F)(F)F)cc2)cc(NC(=O)C2CC2)n1 [Example I-231, Methyl (4-cyanobenzyl)({6-[(cyclopropylcarbonyl)amino]-4-[4-(trifluoromethoxy)phenyl]pyridin-2-yl}carbonyl)carbamate]		4.43		4.41	pest or weed control at 100 g/ha (Spodoptera frugiperda; application rate 100 g/ha): 100%; pest or weed control at 500 g/ha (Spodoptera frugiperda; application rate 500 g/ha): 100%; chromatographic logP [1, 5]: 4.41; chromatographic logP [1, 6]: 4.43
N#Cc1ccc(CNC(=O)c2cc(-c3ccc(OC(F)(F)F)cc3)cc(NC(=O)C3(C(F)(F)F)CC3)n2)cc1 [Example I-242]	100				LOGP_HCOOH [1, 2]: 4.57; LOGP_NEUTRAL ([1]; log P (neutral), HPLC reversed-phase column (C 18)): 4.63
